Assays:
[1] = system: A2780, HL60, C6 and HT29 cell lines; test: Cytotoxicity in vitro, summary over the cell lines of example 14; format: cell-based, human; rat; conditions: all cell lines of Tables 1 and 2; read-out: GI50 values determined by means of the cellular viability values
Description: (§1) The cytotoxic effects of the compounds of formula (A) were evaluated by treating […] with different concentrations of the compounds under screening. The following cell lines were used: A2780 (human ovarian carcinoma), HL60 (human leukaemia), C6 (rat glioma) and HT29 (adenocarcinoma of human colon). The cell lines have been obtained by ECACC (European Collection of Cell Cultures).
The cell lines have been cultured in 75 cm^2 flasks with culture medium DMEM (Dulbecco's Medium Eagle Modified, Sigma Aldrich®) and the following additives (Sigma Aldrich®): L-Glutamine 2 mM, 10% Fetal Bovine Serum, Penicillin/-Streptomycin, Fungizone, Gentamycin. The incubation was carried out in modified atmosphere incubators (37° C., 5% CO2). When cell confluence was obtained, the cells were propagated by dilution in a ratio 1:3/1:5 by using a Trypsin-EDTA 1× solution and then transferred into 96 well plates in the suitable culture medium. The cells were then treated for 72 hours with different concentrations (10^−13+10^−4 M) of the compounds under examination. For the tests in vitro the compounds obtained in the examples 1.15 and 6.8 were solubilised in dimethylsulphoxide (DMSO). […]
In order to control the cellular viability, the ATPlite test (Perkin Elmer) was used. […] For the reading the Victor 3 instrument by Perkin Elmer was used.
Four readings were taken for each sample solution. […]

[2] = system: A2780 (human ovarian carcinoma); test: Cytotoxicity in vitro, cellular viability (ATPlite Perkin Elmer test), A2780; format: cell-based; design: cellular viability (ATPlite Perkin Elmer test): unit not given here; conditions: 72 hours
Description: as §1
(§2) The cell lines have been cultured in 75 cm^2 flasks with culture medium DMEM (Dulbecco's Medium Eagle Modified, Sigma Aldrich®) and the following additives (Sigma Aldrich®): L-Glutamine 2 mM, 10% Fetal Bovine Serum, Penicillin/-Streptomycin, Fungizone, Gentamycin. The incubation was carried out in modified atmosphere incubators (37° C., 5% CO2). When cell confluence was obtained, the cells were propagated by dilution in a ratio 1:3/1:5 by using a Trypsin-EDTA 1× solution and then transferred into 96 well plates in the suitable culture medium. The cells were then treated for 72 hours with different concentrations (10^−13+10^−4 M) of the compounds under examination. For the tests in vitro the compounds obtained in the examples 1.15 and 6.8 were solubilised in dimethylsulphoxide (DMSO). All the tests were performed with a constant DMSO concentration equal to 0.1% by weight.
(§3) In order to control the cellular viability, the ATPlite test (Perkin Elmer) was used. The APTlite test evaluates the ATP production. APT is a marker of cellular viability as it is present in all the metabolically active cells. The test’ is based on the chemiluminiscence due to the ATP reaction with the luciferase and the D-luciferin. The emitted light is proportional to the ATP concentration. For the reading the Victor 3 instrument by Perkin Elmer was used.
(§4) Four readings were taken for each sample solution. The results (average values) for the cytotoxicity of the compounds of formula (A) obtained in examples 1.15 and 6.8 are reported respectively in Tables 1 and 2. It is noted that the GI50 values determined by means of the cellular viability values are lower than 2 nM. This confirms the high cytotoxicity of the compound of formula (A).

[3] = system: HT29 (adenocarcinoma of human colon); test: Cytotoxicity in vitro, cellular viability (ATPlite Perkin Elmer test), HT29; format: cell-based; design: cellular viability (ATPlite Perkin Elmer test): unit not given here; conditions: for cellular viability (ATPlite Perkin Elmer test): 72 hours
Description: as §1, §2, §3, §4

[4] = system: HL60 (human leukaemia); test: Cytotoxicity in vitro, cellular viability (ATPlite Perkin Elmer test), HL60; format: cell-based; design: cellular viability (ATPlite Perkin Elmer test): unit not given here; conditions: HL60, 72 hours
Description: as §1, §2, §3, §4

[5] = Cytotoxicity in vitro, cellular viability (ATPlite Perkin Elmer test), C6; format: cell-based, rat; design: cellular viability (ATPlite Perkin Elmer test): unit not given here; conditions: rat, C6 rat glioma cells, C6, 72 hours
Description: as §1, §2, §3, §4

[6] = system: C6 (rat glioma); test: as above; format: cell-based; design: cellular viability (ATPlite Perkin Elmer test): unit not given here; conditions: C6, 72 hours
Description: as §1, §2, §3, §4

## CC[C@H](C)[C@H](NC(=O)[C@H]1CCCCN1C)C(=O)N(CCOC)[C@H](C[C@@H](OC(C)=O)c1nc(C(=O)N[C@@H](Cc2ccccc2)C[C@H](C)C(=O)O)cs1)C(C)C [Example 6.8, (2S,4R)-4-(2-((1R,3R)-1-acetoxy-3-((2S,3R)—N(2-methoxyethyl)-3-methyl-2-(1-methylpiperidine-2-carboxamido)pentanamido)-4-methylpentyl)thiazol-4-carboxamido)-2-methyl-5-phenylpentanoic acid]
[1]
  GI50: < 2 nM
[2]; Homo sapiens, value is GI50 multiplied by 10^9, Table 2, read-out: GI50 × 10^9
  GI50: 1.54 nM
[2]; compound 10^−4 mole/litre
  cellular viability (ATPlite Perkin Elmer test): 3.08
[2]; compound 10^−5 mole/litre
  cellular viability (ATPlite Perkin Elmer test): 8.41
[2]; compound 10^−6 mole/litre
  cellular viability (ATPlite Perkin Elmer test): 9.11
[2]; compound 10^−7 mole/litre
  cellular viability (ATPlite Perkin Elmer test): 9.11
[2]; compound 10^−8 mole/litre
  cellular viability (ATPlite Perkin Elmer test): 22.80
[2]; compound 10^−9 mole/litre
  cellular viability (ATPlite Perkin Elmer test): 64.56
[2]; compound 10^−10 mole/litre
  cellular viability (ATPlite Perkin Elmer test): 106.7
[2]; compound 10^−11 mole/litre
  cellular viability (ATPlite Perkin Elmer test): 109.7
[2]; compound 10^−12 mole/litre
  cellular viability (ATPlite Perkin Elmer test): 104.1
[2]; compound 10^−13 mole/litre
  cellular viability (ATPlite Perkin Elmer test): 104.0
[3]; Homo sapiens, HT-29, 72 hours, value is GI50 multiplied by 10^9, Table 2
  GI50: 0.278 nM
[3]; compound 10^−4 mole/litre
  cellular viability (ATPlite Perkin Elmer test): 11.55
[3]; compound 10^−5 mole/litre
  cellular viability (ATPlite Perkin Elmer test): 11.46
[3]; compound 10^−6 mole/litre
  cellular viability (ATPlite Perkin Elmer test): 18.08
[3]; compound 10^−7 mole/litre
  cellular viability (ATPlite Perkin Elmer test): 17.68
[3]; compound 10^−8 mole/litre
  cellular viability (ATPlite Perkin Elmer test): 20.38
[3]; compound 10^−9 mole/litre
  cellular viability (ATPlite Perkin Elmer test): 24.49
[3]; compound 10^−10 mole/litre
  cellular viability (ATPlite Perkin Elmer test): 95.7
[3]; compound 10^−11 mole/litre
  cellular viability (ATPlite Perkin Elmer test): 115.6
[3]; compound 10^−12 mole/litre
  cellular viability (ATPlite Perkin Elmer test): 107.5
[3]; compound 10^−13 mole/litre
  cellular viability (ATPlite Perkin Elmer test): 108.0
[4]; compound 10^−4 mole/litre
  cellular viability (ATPlite Perkin Elmer test): 0.75
[4]; compound 10^−5 mole/litre
  cellular viability (ATPlite Perkin Elmer test): 1.22
[4]; compound 10^−6 mole/litre
  cellular viability (ATPlite Perkin Elmer test): 1.25
[4]; compound 10^−7 mole/litre
  cellular viability (ATPlite Perkin Elmer test): 1.14
[4]; compound 10^−8 mole/litre
  cellular viability (ATPlite Perkin Elmer test): 1.04
[4]; compound 10^−9 mole/litre
  cellular viability (ATPlite Perkin Elmer test): 1.36
[4]; compound 10^−10 mole/litre
  cellular viability (ATPlite Perkin Elmer test): 3.53
[4]; compound 10^−11 mole/litre
  cellular viability (ATPlite Perkin Elmer test): 56.38
[4]; compound 10^−12 mole/litre
  cellular viability (ATPlite Perkin Elmer test): 102.0
[4]; compound 10^−13 mole/litre
  cellular viability (ATPlite Perkin Elmer test): 100.9
[4]; Homo sapiens, HL-60, value is GI50 multiplied by 10^9, Table 2, read-out: GI50 × 10^9
  GI50: 0.0108 nM
[5]; compound 10^−5 mole/litre
  viability at 72 h: 20.2%
[5]; compound 10^−6 mole/litre
  viability at 72 h: 19.6%
[6]; compound 10^−4 mole/litre
  cellular viability (ATPlite Perkin Elmer test): 19.10
[6]; compound 10^−7 mole/litre
  cellular viability (ATPlite Perkin Elmer test): 20.70
[6]; compound 10^−8 mole/litre
  cellular viability (ATPlite Perkin Elmer test): 25.60
[6]; compound 10^−9 mole/litre
  cellular viability (ATPlite Perkin Elmer test): 39.57
[6]; compound 10^−10 mole/litre
  cellular viability (ATPlite Perkin Elmer test): 64.15
[6]; compound 10^−11 mole/litre
  cellular viability (ATPlite Perkin Elmer test): 96.68
[6]; compound 10^−12 mole/litre
  cellular viability (ATPlite Perkin Elmer test): 99.13
[6]; compound 10^−13 mole/litre
  cellular viability (ATPlite Perkin Elmer test): 101.2
[6]; Rattus norvegicus, value is GI50 multiplied by 10^9, Table 2, read-out: GI50 × 10^9
  GI50: 0.147 nM
